Data published in patent publication US12459914B2, “Compounds and compositions for the treatment of tumors” (FONDAZIONE ISTITUTO ITALIANO DI TECNOLOGIA, priority 2019, dated 2025).

Key:
BRC4/RAD51 interaction = target: T1, BRC4/RAD51 interaction (Homo sapiens, UniProt Q06609); assay: Competitive ELISA assay, disruption of BRC4/RAD51 interaction; format: binding; details: human Rad51, biotinylated BRC4 peptide
T1 construct: purchased Creative Biomart (Rad51); Life Technologies (BRC4 peptide)
T1 sequence (Q06609 1-339): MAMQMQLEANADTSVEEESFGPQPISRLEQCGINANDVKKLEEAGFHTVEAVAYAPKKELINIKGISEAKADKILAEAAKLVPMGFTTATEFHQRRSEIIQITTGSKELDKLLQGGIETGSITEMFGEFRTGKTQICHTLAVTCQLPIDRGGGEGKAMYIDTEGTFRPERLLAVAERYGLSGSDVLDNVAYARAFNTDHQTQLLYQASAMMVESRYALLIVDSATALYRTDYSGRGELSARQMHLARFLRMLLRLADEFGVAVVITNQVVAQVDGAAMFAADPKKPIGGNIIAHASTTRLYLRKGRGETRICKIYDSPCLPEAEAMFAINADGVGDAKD
Protocol: A competitive ELISA screening assay using biotinylated BRC4 peptide to disrupt the BRC4/RAD51 interaction was performed by modifying the method described by Rajendra et al. (Nucleic Acids Res. 38 (2010) 82-96). BRC4-biotinylated peptide (N-term Biotin[…] from Life Technologies) was used to coat 384-well plates (Nunc). After washing with PBS containing 0.05% Tween-20 (PBST), and blocking with the solution BSA 1%/PBST, overnight hybridization with human Rad51 protein (NP_002866 Creative Biomart, NY) was performed. Test compounds were added in dose-response from […] in triplicate with constant DMSO 1%. Antibody raised against Rad51 (Millipore) and HRP-secondary antibody staining to develop the 3,30,5,50-tetramethyllbenzidine signal (Sigma) quenched with 1M HCl was used as the assay readout. Colorimetric measure was read on Victor5 (PerkinElmer) plate Reader. BRC4 and Rad51 were included in the assay as positive control. Results were analyzed using GraphPad Software.

BxPC-3 cells = assay: Cell viability assay (CellTiter Glo); format: cell-based; details: Homo sapiens, 72 h
Protocol: BxPC-3 cells were grown in RPMI 1640 containing 10% FBS, 100 U/ml penicillin/streptomycin, 2 mM glutamine. All media and supplements were from Sigma-Aldrich. Cultures were routinely tested for Mycoplasma contamination. Treatments (Olaparib and BRCA2-Rad51 disruptors) were administered in culture medium supplemented with 0.6% DMSO. The same amount of DMSO was added to the control, untreated cultures.
Cell viability was assessed by CellTiter Glo, Luminescent Cell Viability Assay. Briefly, BxPC-3 cells (1×10^4/well) were plated in white 96-well plates with clear bottom and treated for 72 h with olaparib (10 μM) or with the BRCA2-Rad51 disruptors, given alone or in combination. After treatments, the plate was allowed to equilibrate at room temperature for 30 min and the CellTiter-Glo reactive was directly added to each well. The plate was kept on a shaker for 2 min to induce cell lysis and its luminescence was measured by using a Fluoroskan Ascent FL reader (Labsystems) using manufacturer's instructions.

| EC50 (BRC4/RAD51 interaction) [µM] | EC50 (BxPC-3 cells) [µM] | SMILES |
| --- | --- | --- |
| 38 | > 50 | O=C(O)CCC(=O)N1N=C(c2c(-c3ccccc3)c3cc(Cl)ccc3[nH]c2=O)CC1c1ccc(F)cc1 (centres unmarked) [d.1, 4-[5-(6-chloro-2-oxo-4-phenyl-1H-quinolin-3-yl)-3-(4-fluorophenyl)-3,4-dihydropyrazol-2-yl]-4-oxo-butanoic acid] |
| – | 37 | CC(=O)N1N=C(c2c(-c3ccccc3)c3cc(Cl)ccc3[nH]c2=O)CC1c1ccc(F)cc1 (centres unmarked) [d.2, 3-[2-acetyl-3-(4-fluorophenyl)-3,4-dihydropyrazol-5-yl]-6-chloro-4-phenyl-1H-quinolin-2-one] |
| 34 | – | CCC(=O)N1N=C(c2c(-c3ccccc3)c3cc(Cl)ccc3[nH]c2=O)CC1c1ccc(F)cc1 (centres unmarked) [d.3, 6-chloro-3-[3-(4-fluorophenyl)-2-propanoyl-3,4-dihydropyrazol-5-yl]-4-phenyl-1H-quinolin-2-one] |
| > 100 | 7.6 | NCCC(=O)N1N=C(c2c(-c3ccccc3)c3cc(Cl)ccc3[nH]c2=O)CC1c1ccc(F)cc1 (centres unmarked) [d.4, 3-[2-(3-aminopropanoyl)-3-(4-fluorophenyl)-3,4-dihydropyrazol-5-yl]-6-chloro-4-phenyl-1H-quinolin-2-one] |
| – | > 50 | O=C(O)CCC(=O)N1N=C(c2c(-c3ccccc3)c3cc(Cl)ccc3[nH]c2=O)CC1c1ccc(Cl)cc1 (centres unmarked) [d.5, 4-[5-(6-chloro-2-oxo-4-phenyl-1H-quinolin-3-yl)-3-(4-chlorophenyl)-3,4-dihydropyrazol-2-yl]-4-oxo-butanoic acid] |
| – | 20 | CC(=O)N1N=C(c2c(-c3ccccc3)c3cc(Cl)ccc3[nH]c2=O)CC1c1ccc(Cl)cc1 (centres unmarked) [d.6, 3-[2-acetyl-3-(4-chlorophenyl)-3,4-dihydropyrazol-5-yl]-6-chloro-4-phenyl-1H-quinolin-2-one] |
| – | 20 | CCC(=O)N1N=C(c2c(-c3ccccc3)c3cc(Cl)ccc3[nH]c2=O)CC1c1ccc(Cl)cc1 (centres unmarked) [d.7, 6-chloro-3-[3-(4-chlorophenyl)-2-propanoyl-3,4-dihydropyrazol-5-yl]-4-phenyl-1H-quinolin-2-one] |
| 19 | – | CCC(=O)N1N=C(c2c(-c3ccccc3)c3cc(Cl)ccc3[nH]c2=O)CC1c1ccc(Br)cc1 (centres unmarked) [d.10, 3-[3-(4-bromophenyl)-2-propanoyl-3,4-dihydropyrazol-5-yl]-6-chloro-4-phenyl-1H-quinolin-2-one] |
| – | 27 | CCn1ncc2cc(C3CC(c4c(-c5ccccc5)c5cc(Cl)ccc5[nH]c4=O)=NN3C(C)=O)ccc21 (centres unmarked) [d.32, 3-[2-acetyl-3-(1-ethylindazol-5-yl)-3,4-dihydropyrazol-5-yl]-6-chloro-4-phenyl-1H-quinolin-2-one] |
| – | 43 | O=C(O)CCC(=O)N1N=C(c2c(-c3ccccc3)c3cc(Cl)ccc3[nH]c2=O)CC1c1ccc(-c2ccc(Br)cc2)cc1 (centres unmarked) [d.39, 4-[3-[4-(4-bromophenyl)phenyl]-5-(6-chloro-2-oxo-4-phenyl-1H-quinolin-3-yl)-3,4-dihydropyrazol-2-yl]-4-oxo-butanoic acid] |
| – | 40.6 | COc1ccc(-c2ccc(C3CC(c4c(-c5ccccc5)c5cc(Cl)ccc5[nH]c4=O)=NN3C(=O)CCC(=O)O)cc2)cc1 (centres unmarked) [d.41, 4-[5-(6-chloro-2-oxo-4-phenyl-1H-quinolin-3-yl)-3-[4-(4-methoxyphenyl)phenyl]-3,4-dihydropyrazol-2-yl]-4-oxo-butanoic acid] |
| 70 | – | COc1ccc(-c2ccc(C3CC(c4c(-c5ccccc5)c5cc(Cl)ccc5[nH]c4=O)=NN3C(C)=O)cc2)cc1 (centres unmarked) [d.42, 3-[2-acetyl-3-[4-(4-methoxyphenyl)phenyl]-3,4-dihydropyrazol-5-yl]-6-chloro-4-phenyl-1H-quinolin-2-one] |
| 46 | – | CCCn1cc(-c2ccc(C3CC(c4c(-c5ccccc5)c5cc(Cl)ccc5[nH]c4=O)=NN3C(C)=O)cc2)cn1 (centres unmarked) [d.44, 3-[2-acetyl-3-[4-(1-propylpyrazol-4-yl)phenyl]-3,4-dihydropyrazol-5-yl]-6-chloro-4-phenyl-1H-quinolin-2-one] |
| 15 | – | CCn1ncc2cc(-c3ccc(C4CC(c5c(-c6ccccc6)c6cc(Cl)ccc6[nH]c5=O)=NN4C(=O)CCC(=O)O)cc3)ccc21 (centres unmarked) [d.45, 4-[5-(6-chloro-2-oxo-4-phenyl-1H-quinolin-3-yl)-3-[4-(1-ethylindazol-5-yl)phenyl]-3,4-dihydropyrazol-2-yl]-4-oxo-butanoic acid] |
| – | 15.2 | CC(=O)N1N=C(c2c(-c3ccccc3)c3cc(Cl)ccc3[nH]c2=O)CC1c1ccc(C)cc1 (centres unmarked) [d.49, 3-[2-acetyl-3-(p-tolyl)-3,4-dihydropyrazol-5-yl]-6-chloro-4-phenyl-1H-quinolin-2-one] |
| – | 15.2 | O=C(O)CCC(=O)N1N=C(c2c(Cc3ccccc3)c3cc(Cl)ccc3[nH]c2=O)CC1c1ccc(F)cc1 (centres unmarked) [d.50, 4-[5-(4-benzyl-6-chloro-2-oxo-1H-quinolin-3-yl)-3-(4-fluorophenyl)-3,4-dihydropyrazol-2-yl]-4-oxo-butanoic acid] |
| – | 13.7 | COc1ccc(C2CC(c3c(Cc4ccccc4)c4cc(Cl)ccc4[nH]c3=O)=NN2C(C)=O)cc1 (centres unmarked) [d.52, 3-[2-acetyl-3-(4-methoxyphenyl)-3,4-dihydropyrazol-5-yl]-4-benzyl-6-chloro-1H-quinolin-2-one] |
| 65 | – | CCC(=O)N1N=C(c2c(Cc3ccccc3)c3cc(Cl)ccc3[nH]c2=O)CC1c1ccc(F)cc1 (centres unmarked) [d.54, 4-benzyl-6-chloro-3-[3-(4-fluorophenyl)-2-propanoyl-3,4-dihydropyrazol-5-yl]-1H-quinolin-2-one] |
| – | 23.6 | O=C(O)CCC(=O)N1N=C(c2c(Cc3ccccc3)c3cc(Cl)ccc3[nH]c2=O)CC1c1ccc(Br)cc1 (centres unmarked) [d.58, 4-[5-(4-benzyl-6-chloro-2-oxo-1H-quinolin-3-yl)-3-(4-bromophenyl)-3,4-dihydropyrazol-2-yl]-4-oxo-butanoic acid] |
| > 100 | – | COc1ccc(C2CC(c3c(Cc4ccccc4)c4cc(Cl)ccc4[nH]c3=O)=NN2C(=O)CCC(=O)O)cc1 (centres unmarked) [d.61, 4-[5-(4-benzyl-6-chloro-2-oxo-1H-quinolin-3-yl)-3-(4-methoxyphenyl)-3,4-dihydropyrazol-2-yl]-4-oxo-butanoic acid] |
| 10 | – | Cn1ccc2cc(C3CC(c4c(Cc5ccccc5)c5cc(Cl)ccc5[nH]c4=O)=NN3C(=O)CCC(=O)O)ccc21 (centres unmarked) [d.69, 4-[5-(4-benzyl-6-chloro-2-oxo-1H-quinolin-3-yl)-3-(1-methylindol-5-yl)-3,4-dihydropyrazol-2-yl]-4-oxo-butanoic acid] |
| – | 81.8 | Cn1ncc2cc(C3CC(c4c(Cc5ccccc5)c5cc(Cl)ccc5[nH]c4=O)=NN3C(=O)CCC(=O)O)ccc21 (centres unmarked) [d.73, 4-[5-(4-benzyl-6-chloro-2-oxo-1H-quinolin-3-yl)-3-(1-methylindazol-5-yl)-3,4-dihydropyrazol-2-yl]-4-oxo-butanoic acid] |
| 12 | – | O=C(O)CCC(=O)N1N=C(c2c(Cc3ccccc3)c3cc(Cl)ccc3[nH]c2=O)CC1c1ccc(-c2ccc(F)cc2)cc1 (centres unmarked) [d.83, 4-[5-(4-benzyl-6-chloro-2-oxo-1H-quinolin-3-yl)-3-[4-(4-fluorophenyl)phenyl]-3,4-dihydropyrazol-2-yl]-4-oxo-butanoic acid] |
| 105 | – | COc1ccc(-c2ccc(C3CC(c4c(Cc5ccccc5)c5cc(Cl)ccc5[nH]c4=O)=NN3C(C)=O)cc2)cc1 (centres unmarked) [d.89, 3-[2-acetyl-3-[4-(4-methoxyphenyl)phenyl]-3,4-dihydropyrazol-5-yl]-4-benzyl-6-chloro-1H-quinolin-2-one] |
| 190 | – | O=C(O)CCC(=O)N1N=C(c2c(-c3ccccc3)c3cc(Cl)ccc3[nH]c2=O)CC1c1ccccn1 (centres unmarked) [d.99, 4-(3-(6-chloro-2-oxo-4-phenyl-1,2-dihydroquinolin-3-yl)-5-(pyridin-2-yl)-4,5-dihydro-1H-pyrazol-1-yl)-4-oxobutanoic acid] |
| 15 | – | O=C(O)CCC(=O)N1N=C(c2c(Cc3ccccc3)c3cc(Cl)ccc3[nH]c2=O)CC1c1cccnc1 (centres unmarked) [d.100, 4-[5-(4-benzyl-6-chloro-2-oxo-1H-quinolin-3-yl)-3-(3-pyridyl)-3,4-dihydropyrazol-2-yl]-4-oxo-butanoic acid] |
| – | 29.6 | COc1ccc(C2CC(c3c(CCc4ccccc4)c4cc(Cl)ccc4[nH]c3=O)=NN2C(=O)CCC(=O)O)cc1 (centres unmarked) [d.105, 4-[5-[6-chloro-2-oxo-4-(2-phenylethyl)-1H-quinolin-3-yl]-3-(4-methoxyphenyl)-3,4-dihydropyrazol-2-yl]-4-oxo-butanoic acid] |
